Data taken from US9708286B2, “Ingenol-3-acylates III and ingenol-3-carbamates” (LEO Laboratories Limited, priority 2010, dated 2017).

Experiments:
Assay type in all cases: cell-based
[1] = test system: PMN's (polymorphonuclear leukocytes); test: Neutrophil oxidative burst; settings: Leukocyte, 40 min, read-out: Neutrophil oxidative burst Rel EC50 range, PMN from buffy coats, 40 min at RT, hydroethidine fluorescence; normalized to 5×10^−7 M PEP0005
How it was run: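 Human buffy-coat neutrophils (2.5×10^5/well) in HBSS with 0.1% BSA, 5 mM glucose treated with compound premixed with 10 μM hydroethidine for 40 min at RT; fluorescence read at 485/579 nm. Normalized to 5×10^−7 M PEP0005; Rel EC50 is midway between fitted top and bottom, Abs EC50 gives 50% of PEP0005 maximum.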

[2] = test system: Primary human epidermal keratinocytes, HeKa; test: HeKa cytokine release (IL-8); settings: Homo sapiens, HEKa, 6 h, read-out: HeKa cytokine release (IL-8) Rel EC50 range
How it was run: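 Seeded cells exposed to compound dilutions for 6 h at 37° C; IL-8 in supernatant quantified by MSD sandwich electrochemiluminescence immunoassay. Effects normalized to positive control (1.5×10^−7 M PEP0005), four-parameter sigmoidal fit; Rel EC50 is concentration midway between fitted top and bottom.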

HeLa cells = test: Necrosis assay; settings: Homo sapiens, HeLa, 0.5 h, read-out: HeLa necrosis EC50 range
How it was run: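 HeLa cells treated with compound at 10 μM to 400 μM (final) for 30 min at 37° C., viability then measured by PrestoBlue fluorescence (ex 535/em 630 nm). Normalized to 1% DMSO and 400 μM ingenol mebutate controls; AbsEC50 from four-parameter sigmoidal fit.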

Row | Compound | EC50 [1] [nM] | EC50 [2] [nM] | EC50 (HeLa cells) [nM]
1 | CC1=C[C@]23C(=O)[C@@H](C=C(CO)[C@@H](O)[C@]2(O)[C@H]1OC(=O)c1nn(C)cc1Br)[C@H]1[C@@H](C[C@H]3C)C1(C)C [Compound 570, Ingenol 3-(4-bromo-1-methyl-pyrazole-3-carboxylate)] | 20 to 100 | > 100 | 150000 to 350000
2 | CC1=C[C@]23C(=O)[C@@H](C=C(CO)[C@@H](O)[C@]2(O)[C@H]1OC(=O)c1c(C)c2ccccc2n1C)[C@H]1[C@@H](C[C@H]3C)C1(C)C [Compound 571, Ingenol 3-(1,3-dimethylindole-2-carboxylate)] | < 20 | < 20 | < 150000
3 | COc1ccc2c(c1)c(C)c(C(=O)O[C@H]1C(C)=C[C@]34C(=O)[C@@H](C=C(CO)[C@@H](O)[C@]13O)[C@H]1[C@@H](C[C@H]4C)C1(C)C)n2C [Compound 572, Ingenol 3-(5-methoxy-1,3-dimethyl-indole-2-carboxylate)] | < 20 | < 20 | < 150000
4 | CC1=C[C@]23C(=O)[C@@H](C=C(CO)[C@@H](O)[C@]2(O)[C@H]1OC(=O)c1c(-c2ccccc2)c2ccccc2n1C)[C@H]1[C@@H](C[C@H]3C)C1(C)C [Compound 574, Ingenol 3-(1-methyl-3-phenyl-indole-2-carboxylate)] | < 20 | < 20 | < 150000
5 | CC1=C[C@]23C(=O)[C@@H](C=C(CO)[C@@H](O)[C@]2(O)[C@H]1OC(=O)c1c(C)noc1C(F)(F)F)[C@H]1[C@@H](C[C@H]3C)C1(C)C [Compound 575, Ingenol 3-(3-methyl-5-(trifluoromethyl)isoxazole-4-carboxylate)] | < 20 | < 20 | < 150000
6 | CC1=C[C@]23C(=O)[C@@H](C=C(CO)[C@@H](O)[C@]2(O)[C@H]1OC(=O)c1c(C)ccn1C)[C@H]1[C@@H](C[C@H]3C)C1(C)C [Compound 576, Ingenol 3-(1,3-dimethylpyrrole-2-carboxylate)] | < 20 | < 20 | < 150000
7 | CC1=C[C@]23C(=O)[C@@H](C=C(CO)[C@@H](O)[C@]2(O)[C@H]1OC(=O)c1c(C)nn(CC(F)(F)F)c1C)[C@H]1[C@@H](C[C@H]3C)C1(C)C [Compound 577, Ingenol 3-(3,5-dimethyl-1-(2,2,2-trifluoroethyl)pyrazole-4-carboxylate)] | 20 to 100 | < 20 | 150000 to 350000
8 | CC1=C[C@]23C(=O)[C@@H](C=C(CO)[C@@H](O)[C@]2(O)[C@H]1OC(=O)c1cc(C)n(C2CC2)c1C)[C@H]1[C@@H](C[C@H]3C)C1(C)C [Compound 578, Ingenol 3-(1-cyclopropyl-2,5-dimethyl-pyrrole-3-carboxylate)] | < 20 | < 20 | < 150000
9 | CC1=C[C@]23C(=O)[C@@H](C=C(CO)[C@@H](O)[C@]2(O)[C@H]1OC(=O)c1cc(C)n(C)c1C)[C@H]1[C@@H](C[C@H]3C)C1(C)C [Compound 579, Ingenol 3-(1,2,5-trimethylpyrrole-3-carboxylate)] | < 20 | < 20 | 150000 to 350000
10 | CC1=C[C@]23C(=O)[C@@H](C=C(CO)[C@@H](O)[C@]2(O)[C@H]1OC(=O)c1c(C)c[nH]c1C)[C@H]1[C@@H](C[C@H]3C)C1(C)C [Compound 580, Ingenol 3-(2,4-dimethyl-1H-pyrrole-3-carboxylate)] | > 100 | > 100 | 150000 to 350000
11 | CC1=C[C@]23C(=O)[C@@H](C=C(CO)[C@@H](O)[C@]2(O)[C@H]1OC(=O)c1cccn1C)[C@H]1[C@@H](C[C@H]3C)C1(C)C [Compound 581, Ingenol 3-(1-methylpyrrole-2-carboxylate)] | < 20 | < 20 | 150000 to 350000
12 | CC1=C[C@]23C(=O)[C@@H](C=C(CO)[C@@H](O)[C@]2(O)[C@H]1OC(=O)c1cc(C)c[nH]1)[C@H]1[C@@H](C[C@H]3C)C1(C)C [Compound 582, Ingenol 3-(4-methyl-1H-pyrrole-2-carboxylate)] | < 20 | < 20 | 150000 to 350000
13 | CC1=C[C@]23C(=O)[C@@H](C=C(CO)[C@@H](O)[C@]2(O)[C@H]1OC(=O)c1ccc(C)n1C)[C@H]1[C@@H](C[C@H]3C)C1(C)C [Compound 583, Ingenol 3-(1,5-dimethylpyrrole-2-carboxylate)] | < 20 | < 20 | 150000 to 350000
14 | CC1=C[C@]23C(=O)[C@@H](C=C(CO)[C@@H](O)[C@]2(O)[C@H]1OC(=O)c1[nH]ccc1C)[C@H]1[C@@H](C[C@H]3C)C1(C)C [Compound 584, Ingenol 3-(3-methyl-1H-pyrrole-2-carboxylate)] | < 20 | < 20 | 150000 to 350000
15 | CC1=C[C@]23C(=O)[C@@H](C=C(CO)[C@@H](O)[C@]2(O)[C@H]1OC(=O)c1cccn1C1CC1)[C@H]1[C@@H](C[C@H]3C)C1(C)C [Compound 585, Ingenol 3-(1-cyclopropylpyrrole-2-carboxylate)] | < 20 | < 20 | < 150000
16 | CCn1cc(C)c(C(=O)O[C@H]2C(C)=C[C@]34C(=O)[C@@H](C=C(CO)[C@@H](O)[C@]23O)[C@H]2[C@@H](C[C@H]4C)C2(C)C)c1C [Compound 586, Ingenol 3-(1-ethyl-2,4-dimethyl-pyrrole-3-carboxylate)] | < 20 | < 20 | < 150000
17 | C=CCn1cc(C)c(C(=O)O[C@H]2C(C)=C[C@]34C(=O)[C@@H](C=C(CO)[C@@H](O)[C@]23O)[C@H]2[C@@H](C[C@H]4C)C2(C)C)c1C [Compound 587, Ingenol 3-(1-allyl-2,4-dimethyl-pyrrole-3-carboxylate)] | < 20 | < 20 | < 150000
18 | CC1=C[C@]23C(=O)[C@@H](C=C(CO)[C@@H](O)[C@]2(O)[C@H]1OC(=O)c1c(C)cn(CC2CC2)c1C)[C@H]1[C@@H](C[C@H]3C)C1(C)C [Compound 588, Ingenol 3-(1-(cyclopropylmethyl)-2,4-dimethyl-pyrrole-3-carboxylate)] | < 20 | < 20 | < 150000
19 | COCCn1cc(C)c(C(=O)O[C@H]2C(C)=C[C@]34C(=O)[C@@H](C=C(CO)[C@@H](O)[C@]23O)[C@H]2[C@@H](C[C@H]4C)C2(C)C)c1C [Compound 589, Ingenol 3-(1-(2-methoxyethyl)-2,4-dimethyl-pyrrole-3-carboxylate)] | 20 to 100 | < 20 | < 150000
20 | CC1=C[C@]23C(=O)[C@@H](C=C(CO)[C@@H](O)[C@]2(O)[C@H]1OC(=O)N(C)c1ccccc1)[C@H]1[C@@H](C[C@H]3C)C1(C)C [Compound 705, Ingenol 3-(N-methyl-N-phenyl-carbamate)] | < 20 | < 20 | 150000 to 350000
21 | CCN(CC)C(=O)O[C@H]1C(C)=C[C@]23C(=O)[C@@H](C=C(CO)[C@@H](O)[C@]12O)[C@H]1[C@@H](C[C@H]3C)C1(C)C [Compound 706, Ingenol 3-(N,N-diethyl-carbamate)] | < 20 | 20 to 100 | > 350000
22 | CC1=C[C@]23C(=O)[C@@H](C=C(CO)[C@@H](O)[C@]2(O)[C@H]1OC(=O)N(C)C1CCCCC1)[C@H]1[C@@H](C[C@H]3C)C1(C)C [Compound 709, Ingenol 3-(N-cyclohexyl-N-methyl-carbamate)] | < 20 | < 20 | 150000 to 350000
23 | CC1=C[C@]23C(=O)[C@@H](C=C(CO)[C@@H](O)[C@]2(O)[C@H]1OC(=O)N1CCCC(C)(C)C1)[C@H]1[C@@H](C[C@H]3C)C1(C)C [Compound 713, Ingenol 3-(3,3-dimethyl-piperidine-1-carboxylate)] | 20 to 100 | < 20 | 150000 to 350000
24 | CC1=C[C@]23C(=O)[C@@H](C=C(CO)[C@@H](O)[C@]2(O)[C@H]1OC(=O)N(C)C1CCCc2ccccc21)[C@H]1[C@@H](C[C@H]3C)C1(C)C (stereo partly drawn) [Compound 714, Ingenol 3-(N-Methyl-N-tetralin-1-yl-carbamate)] | > 100 | < 20 | < 150000
25 | CC1=C[C@]23C(=O)[C@@H](C=C(CO)[C@@H](O)[C@]2(O)[C@H]1OC(=O)N(C)[C@@H](C)c1ccccc1)[C@H]1[C@@H](C[C@H]3C)C1(C)C [Compound 716, Ingenol 3-(N-methyl-N—((S)-1-phenethyl)-carbamate)] | 20 to 100 | < 20 | < 150000
26 | CC1=C[C@]23C(=O)[C@@H](C=C(CO)[C@@H](O)[C@]2(O)[C@H]1OC(=O)N(C)CC1CC1)[C@H]1[C@@H](C[C@H]3C)C1(C)C [Compound 717, Ingenol 3-(N-methyl-N-(cyclopropylmethyl)-carbamate)] | < 20 | < 20 | > 350000
